# Source: patent publication US6576620B2, “Method of identifying partial adenosine A1 receptor agonists” (CV Therapeutics, Inc., priority 1999, dated 2003)
# What was measured:
# [1] = system: guinea pig isolated heart; experiment: Spontaneous atrial rate, isolated heart; conditions: for atrial rate: maximal effect, controls 195±6 (Compound 6) and 198±15 (CPA)
# Source text: Guinea pigs (Hartley) of either sex weighing 300-350 g were anaesthetized with methoxyflurane and killed by decapitation. The chest was cut open and the heart was removed quickly and rinsed in ice-cold modified Krebs-Henseleit (K-H) solution. The contents of the modified K-H solution were (in mM): NaCl 117.9, KCl 4.8, CaCl2 2.5, MgSO2 1.18, KH2PO4 1.2, Na2 EDTA 0.5, ascorbic acid 0.14, dextrose 5.5, pyruvic acid (sodium salt) 2.0, and NaHCO3 25. The K-H solution was continuously gassed with 95% oxygen and 5% CO2, and the pH was adjusted to a value of 7.4. To perfuse the heart by the Langendorff method, the transected aorta was slid onto a glass cannula and secured by a ligature. Retrograde perfusion of the aorta was initiated immediately at a constant flow of 10 ml min-′ with modified K-H solution warmed to 36.0±0.5° C. A side port in the cannula was used to connect the perfusion line to a Gould pressure transducer for measurement of coronary perfusion pressure. Coronary perfusion pressure was continuously recorded on a strip chart (Gould RS3400, Cleveland, Ohio) throughout each experiment. Coronary conductance (in ml min^−1 mmHg^−1) was calculated as the ratio of coronary flow (10 ml min^−1) to perfusion pressure (mm Hg). To facilitate the exit of fluid from the left ventricle, the leaflets of the mitral valve were trimmed with fine spring-handled scissors. When appropriate, hearts were paced at a constant rate using external electrodes. After completion of dissection and instrumentation (see below) for measurement of either atrial rate, stimulus-to-His bundle (S-H) interval, monophasic action potentials, or coronary perfusion pressure, each heart was allowed to equilibrate for 20-40 min before the administration of drug. Experimental interventions were always preceded and followed by control measurements. Criteria for exclusion of hearts from study were (1) a coronary perfusion pressure of less than 50 mm Hg, (2) absence of a stable coronary perfusion pressure during the equilibration period, and (3) inability to pace a heart at a constant rate throughout an experiment.
# To measure spontaneous atrial rate in hearts that were not paced, a unipolar electrode was placed on the right atrium. A total of 10 atrial beats before, during, and after each intervention was recorded on chart paper moving at a rate of 50 mm per sec, and the average atrial rate at each time was determined from these records.
# Adenosine A1 receptor = experiment: A1-agonist stimulated [35S]GTPγS binding to G proteins; type: biochemical; conditions: for GTPγS: normalized to the full agonist CPA
# Description: At the end of the incubation, each suspension was filtered and the retained radioactivity determined as described above.
# [2] = system: guinea pig isolated heart; experiment: Monophasic action potential duration, isolated heart
# Description: Signals were considered adequate if they were stable for at least 5-10 min and the amplitudes exceeded 10 mV. The data were digitized at 2 kHz by a DT-2801A digitizing board (Data Translation, Marlboro, Mass.) and were saved for analysis using the Snapshot data acquisition program (Snapshot Storage Scope, HEM Data Corp., Southfield, Mich.). The duration of the atrial and ventricular monophasic action potentials was measured from onset of depolarization to either 50 or 90% of repolarization.
SMILES,"EC50 ([1]; Cavia porcellus, read-out: EC50 to decrease atrial rate)",atrial rate [1],"GTPγS (Adenosine A1 receptor; Table 1, compounds of Example 2)","GTPγS (Adenosine A1 receptor; Table 2, compounds of Example 3)","GTPγS (Adenosine A1 receptor; Table 3, compounds of Example 4)",GTPγS (% of CPA) (Adenosine A1 receptor; Table 5),decrease of atrial rate ([1]; spontaneously-beating hearts),effect on duration of ventricular or atrial monophasic action potential [2],"duration of atrial monophasic action potential at 50% of repolarization ([2]; 20 μM compound, control 41±3)","duration of atrial monophasic action potential at 90% of repolarization ([2]; 20 μM compound, control 66±4)","duration of ventricular monophasic action potential at 90% of repolarization ([2]; 20 μM compound, control 158±4)"
"OC[C@H]1O[C@@H](n2cnc3c(NC4CCCC4)ncnc32)[C@H](O)[C@@H]1O [CPA, N^6-cyclopentyladenosine, reference compound]",68 nM,1±1 beats per minute,100%,100%,100%,100 % of CPA,,,,,
"CNC(=O)OC[C@H]1OC(n2cnc3c(N[C@@H]4CCOC4)ncnc32)[C@H](O)[C@@H]1O (stereo partly drawn) [Compound 6 of Example 2, [(5-{6-[((3R)oxolan-3-yl)amino]purin-9-yl}(3 S,2R,4R)-3,4-dihydroxyoxolan-2-yl)methoxy]-N-methylcarboxamide]",,169±7 beats per minute,,,,,13%,no significant effect,41 ± 3 ms,74 ± 4 ms,160 ± 7 ms
